The subject of one data set is Karpas1718 cells. In kind it is cell-based, human. The conditions noted are these: 72 h. How it is done:
(§1) The established human cell lines VL51 1 and Karpas1718 2, derived from bona fide marginal zone lymphomas (MZL), and their derivatives with secondary resistance obtained by long exposure to the BTK inhibitor ibrutinib, the PI3Kδ inhibitor idelalisib or the PI3Kα/δ inhibitor copanlisib (three from VL51 3-5, and one from Karpas1718 6). Cell lines were cultured in RPMI supplemented with fetal bovine serum (FBS) (10%) and penicillin-streptomycin-neomycin (≈5,000 units penicillin, 5 mg streptomycin, and 10 mg neomycin/mL; Sigma-Aldrich, Darmstadt, Germany). Cell line identities were confirmed by periodic short tandem repeat (STR) DNA fingerprinting using the Promega GenePrint 10 System kit (B9510).
(§2) Cells were regularly tested for mycoplasma negativity using the MycoAlert Mycoplasma Detection Kit (Lonza, Visp, Switzerland).
(§3) […] Purity (>95%) was confirmed by reverse-phase high-performance liquid chromatography (RP-HPLC) while molecular masses were verified by mass spectrometry. Peptides were dissolved in nuclease-free water, and 2 mM stock solutions were prepared 7.
(§4) Antarctic peptides were synthesized by Caslo Aps (Caslo Aps Kongens, Lyngby, Denmark) with 98% purity. Purity was confirmed by reverse-phase high-performance liquid chromatography (RP-HPLC), and molecular masses were verified by mass spectrometry. As previously reported, the peptide stock concentration in nuclease-free water (1 mM) was determined spectrophotometrically.
(§5) In vitro cytotoxic activity
(§6) Cells were manually seeded into 96-well plates (VL51, 10’000 cells per well; SSK41, 20’000 cells per well; Karpas1718, 30’000 cells per well). Treatments were applied manually, and cell viability was assessed after 72 hours using 3-(4,5-dimethylthiazol-2-yl)-2,5-diphenyltetrazolium bromide (MTT).
(§7) After a 4-hour incubation, the reaction was terminated by adding sodium dodecyl sulfate (SDS) lysis buffer. Plates were analyzed with Cytation3, and IC50s were calculated using the 4-parameter logistic model (R environment or GraphPad Prism, Version 10.6.1). Antarctic peptides were tested at 40μM, with 1:2 dilutions down to 625 nM. Temporins were tested at 100μM, with 1:5 dilutions down to 32 nM. […]

The test system of data set [1] is Karpas1718-Idel (idelalisib-resistant Karpas1718) cells. The class given is cell-based, human. To be noted: 72 h. How it is done: as §1, §2, §3, §4, §5, §6, §7
For a further data set, the system named is VL51 cells. In kind it is cell-based, human. To be noted: 72 h. How it is done: as §1, §2, §3, §4, §5, §6, §7
The subject of data set [2] is VL51-Copa (copanlisib-resistant VL51) cells. In kind it is cell-based, human. To be noted: 72 h. As to the method: as §1, §2, §3, §4, §5, §6, §7
Data set [3] has as its system VL51-Ibru (ibrutinib-resistant VL51) cells. In kind it is cell-based, human. To be noted: 72 h. As to the method: as §1, §2, §3, §4, §5, §6, §7
Data set [4] deals with VL51-Idel (idelalisib-resistant VL51) cells. The class given is cell-based, human. The conditions noted are these: 72 h. As to the method: as §1, §2, §3, §4, §5, §6, §7
Data set [5] concerns MZL cell lines (VL51, Karpas1718) and resistant derivatives. In words: In vitro cytotoxic activity (MTT, 72 h), summary over the MZL cell line panel. The class given is cell-based. How it is done: For in vitro testing, we used two human MZL cell lines, VL51 and Karpas1718, along with derivative clones rendered resistant by prolonged exposure to the BTK inhibitor ibrutinib, the PI3Kδ inhibitor idelalisib, or the PI3Kα/δ inhibitor copanlisib (Table S1; methods described in the Supporting Information). […] The calculated IC50 values ranged from 5 to 10 µM (Table S2). […] These findings were validated by treating lymphoma cells and peripheral blood mononuclear cells (PBMCs) in parallel. […] While acquired resistance to BTK or PI3K inhibitors often involves secondary mutations in the drug‐binding site, activation of alternative kinases, or evasion of apoptosis through upregulation of anti‐apoptotic proteins, these adaptations are unlikely to protect tumor cells from AMP‐mediated membrane disruption. […]
as §1, §2, §3, §4, §5, §6, §7

For the next data set, the system named is Karpas1718-Idel cells. In words: Cell death and membrane integrity by Annexin V/PI staining. In kind it is cell-based, human. To be noted: 10 µM, 1 and 2 h, flow cytometry. As to the method:
as §1, §2, §3
Antarctic peptides were synthesized by Caslo Aps (Caslo Aps Kongens, Lyngby, Denmark) with 98% purity. Purity was confirmed by reverse-phase high-performance liquid chromatography (RP-HPLC), and molecular masses were verified by mass spectrometry. As previously reported, the peptide stock concentration in nuclease-free water (1 mM) was determined spectrophotometrically. […]
Subsequently, cells were stained with Annexin V and propidium iodide (PI) (Annexin V FITC Apoptosis Detection Kit, BMS500FI-300, Life Technologies) following the manufacturer ’s instructions and analyzed through flow cytometry and immunofluorescence (Leica Thunder microscope).
PBMCs. Flow cytometric (A) and immunofluorescence (B) analyses of Annexin V/PI staining in Karpas1718-Idel cells and PBMCs after 1- and 2-hour treatments with W-trematocine or Temporin L at 10 µM. (B) Representative images (100x magnification) show brightfield, Annexin V (green), and PI […]
(In general: A flow cytometer gives signals particle by particle.)

The next data set relates to PBMCs. Described as above. In kind it is cell-based. To be noted: 10 µM; 1 and 2 h; PBMCs treated in parallel; flow cytometry; listed as temporin L. As to the method:
as §1
Cells were regularly tested for mycoplasma negativity using the MycoAlert Mycoplasma Detection Kit (Lonza, Visp, Switzerland). […]
Antarctic peptides were synthesized by Caslo Aps (Caslo Aps Kongens, Lyngby, Denmark) with 98% purity. […] As previously reported, the peptide stock concentration in nuclease-free water (1 mM) was determined spectrophotometrically. […]
Subsequently, cells were stained with Annexin V and propidium iodide (PI) (Annexin V FITC Apoptosis Detection Kit, BMS500FI-300, Life Technologies) following the manufacturer ’s instructions and analyzed through flow cytometry and immunofluorescence (Leica Thunder microscope). […]

Structures are written as SMILES. Peptide text beside a SMILES is read from it. Bounds are passed on as bounds.

By IC50 is commonly meant the concentration needed to halve the response being measured. A lower IC50 goes with greater potency.

Take `CSCC[C@H](NC(=O)CNC(=O)[C@H](Cc1c[nH]cn1)NC(=O)[C@@H](NC(=O)[C@H](CCCNC(=N)N)NC(=O)[C@H](CCC(=O)O)NC(=O)[C@H](C)NC(=O)[C@H](C)NC(=O)[C@@H](NC(=O)[C@H](CC(C)C)NC(=O)[C@H](C)NC(=O)[C@H](Cc1c[nH]cn1)NC(=O)CNC(=O)[C@@H](NC(=O)[C@H](Cc1c[nH]cn1)NC(=O)[C@H](CCCCN)NC(=O)[C@H](Cc1c[nH]c2ccccc12)NC(=O)[C@H](Cc1ccccc1)NC(=O)[C@H](CCC(=O)O)NC(=O)[C@@H](N)Cc1ccccc1)C(C)C)[C@@H](C)O)C(C)C)C(=O)N[C@@H](CC(C)C)C(=O)N[C@H](C(=O)NCC(=O)O)[C@@H](C)O` [Chionodracine] (H-FEFWKHVGHALTAAERVHGMLTG-OH; N-terminus and C-terminus assumed): the IC50 (in the data set with Karpas1718 cells; in data set [1]; with VL51 cells; in data set [2]; in data set [3]; in [4]) was greater than 40 µM throughout. Moreover, the “anti-proliferative activity (in words)” value in data set [5] (MZL cell lines VL51, Karpas1718 and resistant derivatives) was “inactive”. In data set [5] (concentrations up to 50 µM, MZL cell lines), the cytotoxic effect result was “no measurable cytotoxic effect”.
On to `CC[C@H](C)[C@H](NC(=O)CNC(=O)[C@H](CO)NC(=O)[C@H](CC(C)C)NC(=O)[C@@H](NC(=O)[C@H](CCCNC(=N)N)NC(=O)CNC(=O)[C@@H](NC(=O)[C@H](CC(C)C)NC(=O)[C@@H]1CCCN1C(=O)[C@H](CC(C)C)NC(=O)[C@@H](N)Cc1ccccc1)[C@@H](C)CC)C(C)C)C(=O)N[C@@H](CC(C)C)C(N)=O` [Temporin A] (H-FLPLIGRVLSGIL-NH2; N-terminus and C-terminus assumed), for which the IC50 in the data set on Karpas1718 cells was found to be 47.4 µM; in [1], 49 µM; in the data set on VL51 cells, 32 µM; in data set [2] it was 48.8 µM; in data set [3] it was 48.5 µM; in data set [4], 27.5 µM.
For `CC[C@H](C)[C@H](NC(=O)[C@@H]1CCCN1C(=O)[C@H](CC(C)C)NC(=O)[C@@H](N)CC(C)C)C(=O)N[C@H](C(=O)NCC(=O)N[C@@H](CC(N)=O)C(=O)N[C@@H](CC(C)C)C(=O)N[C@@H](CC(C)C)C(=O)N[C@@H](CCCCN)C(=O)N[C@@H](CO)C(=O)N[C@@H](CC(C)C)C(=O)N[C@@H](CC(C)C)C(N)=O)C(C)C` [Temporin B] (H-LLPIVGNLLKSLL-NH2; N-terminus and C-terminus assumed), the IC50 with Karpas1718 cells worked out at 44.1 µM; in data set [1] it was 71.4 µM; in the data set on VL51 cells, 38.2 µM; in data set [2] it was 47.7 µM; in data set [3], 45.4 µM; in data set [4], 31.6 µM.
As to `CC[C@H](C)[C@H](NC(=O)CNC(=O)[C@H](CC(N)=O)NC(=O)[C@H](CC(C)C)NC(=O)[C@@H](NC(=O)[C@H](CCCNC(=N)N)NC(=O)CNC(=O)[C@@H](NC(=O)[C@@H](NC(=O)[C@@H]1CCCN1C(=O)[C@H](Cc1ccccc1)NC(=O)[C@@H](N)Cc1ccccc1)C(C)C)[C@@H](C)CC)[C@@H](C)CC)C(=O)N[C@@H](CC(C)C)C(N)=O` [Temporin G] (H-FFPVIGRILNGIL-NH2; N-terminus assumed), the IC50 with Karpas1718 cells amounted to 31 µM; in [1], 101 µM; in the data set on VL51 cells, 35.2 µM; in [2] it was 26.5 µM; in data set [3], 38.1 µM; in data set [4], 28.2 µM.
In the case of `CC[C@H](C)[C@H](NC(=O)[C@H](CCCNC(=N)N)NC(=O)CNC(=O)[C@H](CC(C)C)NC(=O)[C@H](Cc1ccccc1)NC(=O)[C@H](CCCCN)NC(=O)[C@H](CO)NC(=O)[C@H](Cc1ccccc1)NC(=O)[C@H](Cc1c[nH]c2ccccc12)NC(=O)[C@H](CCC(N)=O)NC(=O)[C@@H](NC(=O)[C@@H](N)Cc1ccccc1)C(C)C)C(=O)N[C@@H](CC(C)C)C(N)=O` [Temporin L] (H-FVQWFSKFLGRIL-NH2), the IC50 with Karpas1718 cells was 7.5 µM; in [1], 10.1 µM; with VL51 cells, 8.9 µM; in data set [2] it was 7.4 µM; in data set [3], 9.6 µM; in data set [4], 6.4 µM. Moreover, the “activity in resistant models” value in data set [5] (derivatives resistant to BTK, PI3Kδ or PI3Kα/δ inhibitors) is “maintaining full activity in all resistant models”. Also, the “anti-lymphoma activity (Annexin V/PI staining)” value in the data set on Karpas1718-Idel cells is “active in lymphoma cells”; with Karpas1718-Idel cells (listed as temporin L), “potent anti‐lymphoma activity”. Also, the “sensitivity of PBMCs (Annexin V/PI staining)” value in the data set with PBMCs is on record as “markedly less sensitive”.
Take `CC[C@H](C)[C@H](NC(=O)CNC(=O)[C@H](CCCNC(=N)N)NC(=O)[C@H](Cc1ccc(O)cc1)NC(=O)[C@H](CC(C)C)NC(=O)[C@H](CCC(N)=O)NC(=O)[C@H](CO)NC(=O)[C@H](Cc1ccccc1)NC(=O)[C@@H](N)Cc1ccccc1)C(=O)N[C@H](C(=O)N[C@@H](CO)C(=O)N[C@H](C(=O)NCC(=O)N[C@@H](CCCCN)C(=O)N[C@@H](Cc1c[nH]cn1)C(=O)N[C@H](C(=O)N[C@@H](Cc1c[nH]cn1)C(=O)NCC(=O)N[C@@H](CC(C)C)C(=O)N[C@@H](CC(C)C)C(=O)N[C@@H](CO)C(=O)NCC(=O)O)[C@@H](C)CC)C(C)C)C(C)C` [Trematocine-1] (H-FFSQLYRGIVSVGKHIHGLLSG-OH; N-terminus and C-terminus assumed): the IC50 (with Karpas1718 cells; in data set [1]; with VL51 cells; in data set [2]; in [3]; in data set [4]) was greater than 40 µM in each case. In data set [5] (72 h), this molecule showed an IC50 of 25 to 50 µM.

Values taken from article PMC13239830, “Antimicrobial Peptides Induce Cell Death in Marginal Zone Lymphoma Models Resistant to Targeted Therapies” (EJHaem, 2026).
